Measured values from ChEMBL document CHEMBL1201862, “PubChem BioAssay data set” (2004).
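Results reflect a 48-hour exposure of cells in 96-well plates to compound at five concentrations. GI50 marks 50% less growth.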 Active and inactive are the calls of the source. Rule as the data show it: active = GI50 up to about 1.1 µM and inactive = higher.

Columns and labels:
Experiment in all cases: growth of human tumour cells (NCI), 48 h
[1] = tested on: HCT-116
[2] = tested on: UACC-62
[3] = tested on: NCI-H226
[4] = tested on: Malme-3M
[5] = tested on: TK-10
[6] = tested on: HOP-92
[7] = tested on: SF-539
[8] = tested on: SNB-75
[9] = tested on: UO-31
[10] = tested on: A498
[11] = tested on: UACC-257
[12] = tested on: HCC 2998
[13] = tested on: EKVX
[14] = tested on: SK-MEL-5
[15] = tested on: LOX IMVI
[16] = tested on: MOLT-4
[17] = tested on: COLO 205
[18] = tested on: K562
[19] = tested on: RPMI-8226
[20] = tested on: HCT-15

Row | SMILES | GI50 [1] | GI50 [2] | GI50 [3] | GI50 [4] | GI50 [5] | GI50 [6] | GI50 [7] | GI50 [8] | GI50 [9] | GI50 [10] | GI50 [11] | GI50 [12] | GI50 [13] | GI50 [14] | GI50 [15] | GI50 [16] | GI50 [17] | GI50 [18] | GI50 [19] | GI50 [20] [µM]
1 | O=C(CC(O)c1cccnc1)CC(O)c1cccnc1 (stereo not drawn) | 2.04 µM (inactive) | 16.6 µM (inactive) | 45.7 µM (inactive) | 18.4 µM (inactive) | > 55.1 µM (inactive) | 17.4 µM (inactive) | 21.2 µM (inactive) | 14.5 µM (inactive) | 17.4 µM (inactive) | 15.9 µM (inactive) | 18.1 µM (inactive) | 3.82 µM (inactive) | 20.9 µM (inactive) | 16.1 µM (inactive) | 5.18 µM (inactive) | 3.49 µM (inactive) | 14.1 µM (inactive) | 2.75 µM (inactive) | 3.29 µM (inactive) | 14.1
2 | COc1cc2c3cc1Oc1c(O)c(OC)cc4c1C(Cc1ccc(O)c(c1)Oc1ccc(cc1)CC3N(C)CC2)N(C)CC4 (stereo not drawn) | 6.55 µM (inactive) | 23.2 µM (inactive) | 21.4 µM (inactive) | 18.2 µM (inactive) | 13.6 µM (inactive) | 11.9 µM (inactive) | 2.46 µM (inactive) | 15 µM (inactive) | 15.8 µM (inactive) | 18.2 µM (inactive) | 18.6 µM (inactive) | 5.61 µM (inactive) | 21.9 µM (inactive) | 18.5 µM (inactive) | 3.01 µM (inactive) | 8.34 µM (inactive) | 19.5 µM (inactive) | 3.03 µM (inactive) | 15.1 µM (inactive) | 11.6
3 | c1ccc(N2CCN(CCCN3CCc4c([nH]c5ccccc45)C3c3cccnc3)CC2)cc1 (stereo not drawn) | 35.2 µM (inactive) | > 100 µM (inactive) | > 100 µM (inactive) | > 46.9 µM (inactive) | 23.7 µM (inactive) | > 100 µM (inactive) | 83.9 µM (inactive) | > 100 µM (inactive) | > 100 µM (inactive) | > 100 µM (inactive) | 24.6 µM (inactive) | 40.4 µM (inactive) | > 100 µM (inactive) | > 70.3 µM (inactive) | 41.2 µM (inactive) | 30.4 µM (inactive) | 20.8 µM (inactive) | 23.6 µM (inactive) | 76.2 µM (inactive) | 56
4 | CCc1cccc(CC)c1NC1=CC(=O)C(=O)c2ccccc21 | 18.4 µM (inactive) | 14 µM (inactive) | 23 µM (inactive) | 17.9 µM (inactive) | 23.9 µM (inactive) | 15.1 µM (inactive) | 19.5 µM (inactive) | 22.8 µM (inactive) | 18.7 µM (inactive) | 22.3 µM (inactive) | 15 µM (inactive) | 15 µM (inactive) | 14.1 µM (inactive) | 10 µM (inactive) | 9.84 µM (inactive) | 45.7 µM (inactive) | > 100 µM (inactive) | 59.4 µM (inactive) | 40.2 µM (inactive) | 10.3
5 | COC(=O)C1CCC(=O)N1C(c1ccc(OC)cc1)c1ccc2c(c1)OCO2 (stereo not drawn) | 29 µM (inactive) | 32.7 µM (inactive) | 67.3 µM (inactive) | 45.5 µM (inactive) | > 100 µM (inactive) | > 100 µM (inactive) | 32.9 µM (inactive) | 20.2 µM (inactive) | 27.5 µM (inactive) | 58.6 µM (inactive) | 39.1 µM (inactive) | 28.7 µM (inactive) | > 100 µM (inactive) | 24.7 µM (inactive) | 50.4 µM (inactive) | 36.3 µM (inactive) | 37.9 µM (inactive) | 23.4 µM (inactive) | 43.3 µM (inactive) | 32.3
6 | COc1ccc(NC(C)=O)cc1N1C(=O)/C(=C\c2cc(OC)c(OC)c(OC)c2)S(=O)(=O)C1c1ccccc1 (stereo not drawn) | 29.3 µM (inactive) | 65.6 µM (inactive) | 26.5 µM (inactive) | 78.3 µM (inactive) | > 100 µM (inactive) | 51.3 µM (inactive) | > 100 µM (inactive) | 39 µM (inactive) | 38.7 µM (inactive) | > 100 µM (inactive) | 89.5 µM (inactive) | > 100 µM (inactive) | 23.5 µM (inactive) | 44.8 µM (inactive) | 68.1 µM (inactive) | 22 µM (inactive) | 39 µM (inactive) | 28.5 µM (inactive) | 65.8 µM (inactive) | 73.1
7 | CC(C)CCCC(C)[C@H]1CC[C@H]2[C@@H]3CC[C@H]4C[C@@H](CCC=C(c5cc(Cl)c(O)c(C(=O)O)c5)c5cc(Cl)c(O)c(C(=O)O)c5)CC[C@]4(C)[C@H]3CC[C@]12C (stereo partly drawn) | > 50 µM (inactive) | > 50 µM (inactive) | > 50 µM (inactive) | > 50 µM (inactive) | > 50 µM (inactive) | > 50 µM (inactive) | > 50 µM (inactive) | > 50 µM (inactive) | 6.03 µM (inactive) | > 50 µM (inactive) | – | > 50 µM (inactive) | > 50 µM (inactive) | 28.8 µM (inactive) | > 50 µM (inactive) | > 50 µM (inactive) | > 50 µM (inactive) | 31.1 µM (inactive) | > 50 µM (inactive) | 36.1
8 | CC1(c2ccc(F)cc2)C(C#N)C(=O)NC(=O)C1C#N (stereo not drawn) | – | > 100 µM (inactive) | > 100 µM (inactive) | > 100 µM (inactive) | > 100 µM (inactive) | > 100 µM (inactive) | > 100 µM (inactive) | 32.3 µM (inactive) | 83.8 µM (inactive) | 41.4 µM (inactive) | > 100 µM (inactive) | > 100 µM (inactive) | 58.1 µM (inactive) | > 100 µM (inactive) | > 100 µM (inactive) | > 100 µM (inactive) | > 100 µM (inactive) | > 100 µM (inactive) | > 100 µM (inactive) | > 100
9 | c1ccc(C2=C(c3ccccc3)Sc3nnc(CCCCCCCCc4nnc5n4NC(c4ccccc4)=C(c4ccccc4)S5)n3N2)cc1 | 25.8 µM (inactive) | 46.6 µM (inactive) | > 100 µM (inactive) | > 100 µM (inactive) | 44.2 µM (inactive) | 54.8 µM (inactive) | > 100 µM (inactive) | 63.2 µM (inactive) | 27.4 µM (inactive) | > 100 µM (inactive) | > 100 µM (inactive) | 85.5 µM (inactive) | 35.5 µM (inactive) | 33.6 µM (inactive) | 48.2 µM (inactive) | 17.9 µM (inactive) | 45.3 µM (inactive) | 25 µM (inactive) | 27.4 µM (inactive) | 37.5
10 | O=C1Cc2ccccc2N1c1c(Cl)cccc1Cl | 45.6 µM (inactive) | 40.2 µM (inactive) | 37.9 µM (inactive) | 56.8 µM (inactive) | 98.4 µM (inactive) | 50.2 µM (inactive) | 81.3 µM (inactive) | 27.7 µM (inactive) | 24.3 µM (inactive) | 50.8 µM (inactive) | 39.6 µM (inactive) | 76.7 µM (inactive) | 63.5 µM (inactive) | 32.8 µM (inactive) | 49.5 µM (inactive) | 22.6 µM (inactive) | 42.3 µM (inactive) | 21.3 µM (inactive) | 19.6 µM (inactive) | 46.9
